# Tested on: human melanoma cell line grafted mouse models
# Test: Anti-tumor effect of angiogenesis inhibitor on mouse model grafted with melanoma cell line
# Type: in vivo, nude mouse
# Conditions: 100 mg/kg/day orally, 7th day after initiation of administration
# Protocol: The human melanoma cell lines used in Example 1 were respectively cultured in the mediums shown in the column of “Culture medium” (containing 10% FBS) of Table 6 until about 80% confluency was obtained (in an incubator under 5% carbon dioxide gas). After culturing, cells were collected by trypsin-EDTA treatment in accordance with a conventional method. The cells were suspended with a phosphate buffer or a matrigel solution (mixture of phosphate buffer and matrigel in a common ratio of 1:1) to prepare suspension solution of 1×10^8 cells/mL or 5×10^7 cells/mL. The cell suspension (0.1 mL) was subcutaneously grafted to the side of the body of each nude mouse. In this manner, human melanoma cell line grafted mouse models were prepared.
# After grafting, from the time point when a tumor volume reached about 200 mm^3, a mesylate of 4-(3-chloro-4-(cyclopropylaminocarbonyl)aminophenoxy)-7-methoxy-6-quinolinecarboxamide (hereinafter referred to as E7080) (100 mg/kg/day) was orally administered. The major axis and minor axis of the tumor were measured everyday by Digimatic Caliper (Mitsutoyo). The tumor volume and specific tumor volume were calculated in accordance with the following formula and thereby the anti-tumor effect (ΔT/C) of an angiogenesis inhibitor on the mouse model was measured.
# Tumor volume (TV)=tumor longest diameter (mm)×tumor short diameter^2 (mm^2)/2
# Anti-tumor effect (ΔT/C)=(TV of medicinal drug administered group−TV before initiation of administration)/(TV of control group−TV before initiation of administration)×100
# In FIG. 1, the same cell lines used in Example 1 were used.
smiles,measurement,setting,value
"COc1cc2nccc(Oc3ccc(NC(=O)NC4CC4)c(Cl)c3)c2cc1C(N)=O [E7080, 4-(3-Chloro-4-(cyclopropylaminocarbonyl)aminophenoxy)-7-methoxy-6-quinolinecarboxamide]",Anti-tumor effect (ΔT/C),melanoma cells where BRAF has a mutation and PTEN has no mutation,45%
same,Anti-tumor effect (ΔT/C),melanoma cells where both of BRAF and PTEN are wild type,16%
same,Anti-tumor effect (ΔT/C),melanoma cells where both of BRAF and PTEN have a mutation or loss of expression,23%

# — patent US20200199689A1, “Method for Predicting Effectiveness of Angiogenesis Inhibitor” (Eisai R&D Management Co., Ltd., priority 2011, published 2020)
